Experimental data reported in patent publication US12410178B2, “Small cationic ortho-5,15-di-heteroaryl-porphyrin derivatives and their applications in photoinactivation of microorganisms” (UNIVERSIDADE DE COIMBRA, priority 2019, dated 2025).

Key:
[1] = system: HaCaT immortalized human keratinocyte; assay: Toxicity and phototoxicity towards human cell lines (MTT); type: cell-based
Method: (§1) Toxicity towards human cell lines was evaluated in vitro using the 3-(4,5-dimethylthiazol-2-yl)2,5-diphenyl tetrazolium bromide (MTT, from Sigma Aldrich) assay to estimate the viability of cells after appropriate treatment. After cell attachment, photosensitizer solutions in PBS at concentrations between 0 to 10 μM were added to the cell cultures and incubated for 1 h at 37° C. in the dark. After illumination with the Biotable® or after the equivalent time in control experiments, MTT dissolved at 5 mg/ml in PBS was added to each well (final concentration 0.5 mg/ml), and the microplates were further incubated for 3-4 hours. Medium were then discarded and 100 μl of methanol were added to the cultures and mixed thoroughly to dissolve the dark blue crystals of formazan. Formazan quantification was performed using an automatic microplate reader (Multiskan Go Thermo) by absorbance measurements at 570 nm. Each experiment was repeated three times. Data were expressed as mean absorbance value of six samples and standard error of the mean.
(§2) This example describes the evaluation of in vitro toxicity against HDFn neonatal human dermal fibroblast and HaCaT immortalized human keratinocyte cell lines of a cationic ortho-5,15-di-heteroaryl porphyrin with Formula (IIa). Both types of cells were grown in DMEM (BioTech) with addition of 10% fetal bovine serum (Cultilab—Campinas, SP, Brazil). Before the experiments, the cells were removed by trypsinization, washed with PBS and maintained in a humidified atmosphere at 37° C. and 5% CO2. The cells were incubated in the dark with the photosensitizer of Formula (IIa) in PBS for 30 min at concentrations up to 10 μM, and then illuminated with the Biotable® to deliver 5 J/cm^2 in the wavelength range between 400-700 nm. After exposure to light, the cells were washed with fresh medium and plates were returned to the incubator for 24 h. Cell viability was determined by a MTT assay performed 24 h after irradiation. The cells in the control experiment remained in the dark for the time of the illumination. […] Exposure to a light dose of 5 J/cm^2 led only to a 20% decrease in the viability of fibroblasts at the highest drug dose tested: 10 μM.

[2] = system: HDFn neonatal human dermal fibroblast; assay: as above; type: cell-based
Method: as §1, §2

[3] = system: Pseudomonas aeruginosa ATCC 27853; assay: PDI phototoxicity towards planktonic bacteria (CFU); type: cell-based; conditions: 60 min incubation
Method: (§3) Phototoxicity towards bacteria was evaluated in vitro. Assays were performed with the following bacteria: Escherichia coli ATCC 25922, Pseudomonas aeruginosa ATCC 27853 and Staphylococcus aureus ATCC 29213. Further assay were performed with clinical antibiotic-resistant strains from the Centro Hospitalar da Universidade de Coimbra, namely Staphylococcus aureus methicillin-resistant (MRSA) strain Sa1CHUC recovered from the skin of a burnt patient (resistant to all beta-lactamic antibiotics), and Acinetobacter baumannii 141HUC isolated from an exudate of a burn wound and highly resistant to all beta-lactamics (penicillins, cephalosporins, monobactams and carbapenems), quinolones and the aminoglycosides gentamicin and netilmicin. The planktonic bacteria cells were cultured in Mueller Hinton (MH) agar (Sigma Aldrich) at 37° C. overnight. Cell density was adjusted to the 0.5 McFarland standard in sterile water, which corresponds to approximately 1.5×10^8 CFU/mL. For PDI experiments cell suspensions of bacteria were incubated with various concentrations of the photosensitizers for 1 h, in the dark, at room temperature, using a 96 well plate. Then, the plate was illuminated with a blue light LED (420 nm, 4 mJ/s). Cells incubated with photosensitizers in the dark were covered with aluminum foil for the same time as the PDI groups (1 h). After illumination (or dark incubation) samples were shaken, diluted in PBS and mixed. Aliquots were taken from each well and streaked in MH agar in duplicate for CFU determination and incubated for 37° C./18-24 h in the dark. After 24 h, the colonies were counted and CFU determined. The experiments were performed in triplicate. Statistical analysis was performed with GraphPad Prism 6.
(§4) This example describes the evaluation of in vitro phototoxicity against Gram-positive and Gram-negative bacteria of the cationic ortho-5,15-di-heteroaryl porphyrin with Formula (IIa). The phototoxicity was measured according to the description in the Materials and Methods section. […] There is a dose-phototoxicity response of the test compound relative to the non-treated control. FIG. 8 illustrates the CFU reduction as a function of photosensitizer concentration for the light dose of 1.36 J/cm^2 at 415 nm.

[4] = system: Escherichia coli ATCC 25922; assay: as above; type: cell-based
Method: as §3, §4

[5] = system: Staphylococcus aureus ATCC 29213; assay: as above; type: cell-based
Method: as §3, §4

[6] = system: Staphylococcus aureus methicillin-resistant (MRSA) strain Sa1CHUC; assay: PDI phototoxicity towards multidrug-resistant planktonic bacteria (CFU); type: cell-based; conditions: 60 min incubation, 1.36 J/cm^2 at 415 nm
Method: as §3
(§5) This example describes the evaluation of in vitro phototoxicity against multidrug-resistant Gram-positive and Gram-negative bacteria of the cationic ortho-5,15-di-heteroaryl porphyrin with Formula (IIa). Assays were performed with clinical resistant strains from the Centro Hospitalar da Universidade de Coimbra, namely Staphylococcus aureus methicillin-resistant (MRSA) strain Sa1CHUC collected from the skin of a burnt patient (resistant to all beta-lactamic antibiotics), and Acinetobacter baumannii 141HUC highly resistant all beta-lactamics, including carbapenems, quinolones, gentamicin and netilmicin, isolated from an exudate of a burn wound. The phototoxicity was measured according to the description in the Materials and Methods section. […] There is a dose-phototoxicity response of the test compound relative to the non-treated control. FIG. 9 illustrates the CFU reduction as a function of photosensitizer concentration for the light dose of 1.36 J/cm^2 at 415 nm.

[7] = system: Acinetobacter baumannii 141HUC; assay: as above; type: cell-based; conditions: 60 min incubation, 1.36 J/cm^2 at 415 nm
Method: as §3, §5

[8] = Solubility in water; type: physicochemical
[9] = 1 μM, planktonic, 1.36 J/cm^2 at 415 nm, 60 min incubation
[10] = nanomolar concentrations, 60 min incubation, low light doses

## Cn1cc[n+](C)c1C1=C2C=CC3=[N+]2[Zn@]24[n]5c(ccc51)C=C1C=CC(=[N+]12)C(c1n(C)cc[n+]1C)=c1ccc([n]14)=C3 [Formula (IIa), 5,15-bis(1,3-dimethylimidazol-2-yl)porphyrinate zinc (II) diiodide]
[1]; 10 μM, in the dark
  Dark cytotoxicity, cell viability: did not show a statistically significant reduction of cell viability
[1]; light dose 5 J/cm^2
  Survival fraction at 10 μM, Keratinocytes: 80%
[2]; 10 μM, in the dark
  Dark cytotoxicity, cell viability: did not show a statistically significant reduction of cell viability
[2]; 10 μM, light dose 5 J/cm^2
  decrease in the viability: 20%
[2]; light dose 5 J/cm^2
  Survival fraction at 10 μM, Fibroblast: 100%
[3]; 1 μM, planktonic, 1.36 J/cm^2 at 415 nm
  log CFU at 1 μM, P. Aerogirosa: 3
[3]; nanomolar concentrations, low light doses
  CFU reduction (in words): dramatic decrease in CFU
[4]; 1 μM, 1.36 J/cm^2 at 415 nm
  reduction of the number of bacterial CFU: 7 orders of magnitude
[4]; [9]
  log CFU at 1 μM, E. Coli: 7
[4]; [10]
  CFU reduction (in words): dramatic decrease in CFU
[5]; 1 μM, 1.36 J/cm^2 at 415 nm
  reduction of the number of bacterial CFU: 7 orders of magnitude
[5]; [9]
  log CFU at 1 μM, S. Aureus: 7
[5]; [10]
  CFU reduction (in words): dramatic decrease in CFU
[6]; 1 μM
  reduction of the number of bacterial CFU (in words): dramatic decrease in CFU
[6]; planktonic
  log CFU at 1 μM, S. Aureus MRSA: 7
[7]; 1 μM
  reduction of the number of bacterial CFU (in words): dramatic decrease in CFU
[7]; planktonic
  log CFU at 1 μM, Acinetobacter 141Hu: 7
[8]
  solubility in water: soluble in water
